Earlier results, collected in US5565430A, “Azaaspartic acid analogs as interleukin-1β converting enzyme inhibitors” (Sterling Winthrop Inc., priority 1994, dated 1996).

Columns and labels:
[1] = tested on: patients with active rheumatoid arthritis; details: subcutaneous, after three weeks of daily treatment
[2] = tested on: patients with rheumatoid arthritis; details: subcutaneous, open-label
[3] = tested on: PG-APS model of arthritis in rats
[4] = tested on: chronic myelogenous leukemia cells; details: cells removed from leukemia patients
[5] = tested on: rabbit immune complex colitis; details: animal model of colitis
allergic subjects = details: randomized, double-blind, placebo-controlled

## Antril: The IL-1 receptor antagonist, Antril (Synergen)
[1]
  antiinflammatory activity in rheumatoid arthritis patients: decrease in joint swelling and less disease activity

## IL-1ra: IL-1 receptor antagonist, naturally occurring
[2]
  efficacy in rheumatoid arthritis trial: shows efficacy
[3]
  joint swelling: supresses joint swelling
[4]
  colony growth of leukemia cells: inhibit colony growth
[5]
  tissue necrosis and inflammatory cells in colon: reduced tissue necrosis and the number of inflammatory cells in the colon

B1: Soluble IL-1 receptor: Soluble IL-1 receptor (protein, UniProt P14778 18-336, looked up)
extracellular domain: LEADKCKEREEKIILVSSANEIDVRPCPLNPNEHKGTITWYKDDSKTPVSTEQASRIHQHKEKLWFVPAKVEDSGHYYCVVRNSSYCLRIKISAKFVENEPNLCYNAQAIFKQKLPVAGDGGLVCPYMEFFKNENNELPKLQWYKDCKPLLLDNIHFSGVKDRLIVMNVAEKHRGNYTCHASYTYLGKQYPITRVIEFITLEENKPTRPVIVSPANETMEVDLGSQIQLICNVTGQLSDIAYWKWNGSVIDEDDPVLGEDYYSVENPANKRRSTLITVLNISEIESRFYKHPFTCFAKNTHGIDAAYIQLIYPVTNFQK
modifications: extracellular domain
Allergic subjects
  cutaneous late-phase allergic reaction: significantly reduces clinically the cutaneous late-phase allergic reaction
[4]
  colony growth of leukemia cells: inhibit colony growth
